Experimental data from article PMC8571713 (Experimental neurology, 2021).

Experiments:
[1] = target: T1, dSARM1 ARM (Drosophila SARM1 ARM domain) (Drosophila melanogaster, UniProt Q6IDD9); test: crystal structure; type: binding
T1 sequence (Q6IDD9 315-678): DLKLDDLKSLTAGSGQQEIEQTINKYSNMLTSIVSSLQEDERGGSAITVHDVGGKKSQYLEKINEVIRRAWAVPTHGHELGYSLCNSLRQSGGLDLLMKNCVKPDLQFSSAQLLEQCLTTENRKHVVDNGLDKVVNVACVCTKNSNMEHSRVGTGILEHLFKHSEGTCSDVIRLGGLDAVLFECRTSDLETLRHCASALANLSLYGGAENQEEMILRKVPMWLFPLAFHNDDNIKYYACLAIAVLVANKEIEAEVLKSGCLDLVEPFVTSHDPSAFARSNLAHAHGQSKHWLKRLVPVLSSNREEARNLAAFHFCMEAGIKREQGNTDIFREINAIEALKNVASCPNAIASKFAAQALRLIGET

[2] = target: T2, hSARM1 (human SARM1) (Homo sapiens, UniProt Q6SZW1); test: STD NMR with NMN competition; type: biochemical
T2 sequence (Q6SZW1 28-724): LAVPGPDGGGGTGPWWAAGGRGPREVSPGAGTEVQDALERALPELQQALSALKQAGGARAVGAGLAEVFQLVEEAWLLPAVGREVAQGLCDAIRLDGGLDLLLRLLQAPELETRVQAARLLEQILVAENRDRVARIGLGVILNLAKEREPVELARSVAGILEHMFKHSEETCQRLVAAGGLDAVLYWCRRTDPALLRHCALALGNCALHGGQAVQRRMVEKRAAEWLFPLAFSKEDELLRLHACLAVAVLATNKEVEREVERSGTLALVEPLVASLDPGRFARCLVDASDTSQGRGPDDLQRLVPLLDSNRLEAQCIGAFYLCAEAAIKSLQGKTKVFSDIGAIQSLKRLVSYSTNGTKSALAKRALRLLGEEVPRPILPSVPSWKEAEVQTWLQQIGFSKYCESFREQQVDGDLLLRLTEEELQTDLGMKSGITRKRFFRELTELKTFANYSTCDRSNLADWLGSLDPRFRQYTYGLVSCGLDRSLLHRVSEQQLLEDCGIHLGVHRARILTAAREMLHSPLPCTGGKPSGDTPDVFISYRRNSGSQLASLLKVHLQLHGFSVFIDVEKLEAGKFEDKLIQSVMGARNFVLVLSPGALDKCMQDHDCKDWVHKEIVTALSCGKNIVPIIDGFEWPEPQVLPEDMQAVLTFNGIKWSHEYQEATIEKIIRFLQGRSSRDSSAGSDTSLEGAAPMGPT

O=C([O-])c1ccc[n+]([C@@H]2O[C@H](COP(=O)(O)O)[C@@H](O)[C@H]2O)c1 [NaMN, nicotinic acid mononucleotide]
crystal structure (3.31 Å, soaking with 20 mM NaMN); STD NMR [1]: we determined the crystal structure of the NaMN-bound ARM domain of Drosophila SARM1 (dSARM1ARM) (PDB: 7RTC
IC50 [2]: 93.3 µM
